Where two headings read alike, the source gives them in different places.
Tests used:
Lp-PLA2 in rabbit serum = biological target: T1, Lp-PLA2 in rabbit serum (Oryctolagus cuniculus, UniProt G1SE06); assay: In vitro inhibitory activity towards the enzyme Lp-PLA2 in rabbit serum, [3H]PAF substrate; format: biochemical; details: for inhibition at 0.1 µM: 100 nM
T1 construct: from tissue; host or cells: rabbit serum
T1 sequence (G1SE06 22-423): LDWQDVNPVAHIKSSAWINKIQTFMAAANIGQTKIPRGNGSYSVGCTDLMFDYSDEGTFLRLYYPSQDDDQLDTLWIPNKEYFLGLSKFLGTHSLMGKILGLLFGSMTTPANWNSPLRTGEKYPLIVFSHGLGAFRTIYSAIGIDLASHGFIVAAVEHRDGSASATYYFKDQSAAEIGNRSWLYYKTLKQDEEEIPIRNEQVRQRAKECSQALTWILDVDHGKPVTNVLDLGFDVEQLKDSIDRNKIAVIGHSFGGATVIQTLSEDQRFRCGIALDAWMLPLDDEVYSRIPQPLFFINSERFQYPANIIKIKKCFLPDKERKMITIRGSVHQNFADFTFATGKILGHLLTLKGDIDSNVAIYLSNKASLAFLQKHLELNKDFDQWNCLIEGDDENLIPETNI
Procedure: (§1) The activities of compounds were measured using [^3H] labeled platelet activating factor ([^3H]PAF, Perkinelmer, Lot NET910) as the substrate. The reaction was carried out in a system containing 50 mmol/L HEPES and 150 mmol/L NaCl (pH 7.4) in a total volume of 200 μl. First, 10 μL rabbit serum and 10 μl DMSO solution of the test compound were added to the system and preincubated for 10 min at 37° C. Then 20 nM [^3H]PAF was added as listed in table 1 to start the reaction and incubated for a further 10 min at 37° C. After that, 600 μl of CHCl3/MeOH (2:1) was added and the resulting mixture was vortex mixed and the reaction was stopped. After settled for a while, the mixture was centrifugated at 12000×g for 15 min. The supernatant was transferred to a new tube and 200 μl of CHCl3 was added. The mixture was mixed by vortexing and then settled or centrifugated for 2 min. A 100 μl portion of the supernatant was then collected for radioactivity intensity measurement.
The inhibition rate was determined by the following equation:
Inhibitory rate (%)=1−(DPMcompound tube−DPMblank tube)/(DPMcontrol tube−DPMblank tube)*100%
(Note: DPM is radioactivity intensity unit.)

Lp-PLA2 in human serum = biological target: T2, Lp-PLA2 in human serum (Homo sapiens, UniProt Q13093); assay: In vitro inhibitory activity towards the enzyme Lp-PLA2 in human serum, [3H]PAF substrate; format: biochemical; details: for inhibition at 0.01 µM: 10 nM; for inhibition at 0.1 µM: 100 nM
T2 construct: from tissue
T2 sequence (Q13093 22-441): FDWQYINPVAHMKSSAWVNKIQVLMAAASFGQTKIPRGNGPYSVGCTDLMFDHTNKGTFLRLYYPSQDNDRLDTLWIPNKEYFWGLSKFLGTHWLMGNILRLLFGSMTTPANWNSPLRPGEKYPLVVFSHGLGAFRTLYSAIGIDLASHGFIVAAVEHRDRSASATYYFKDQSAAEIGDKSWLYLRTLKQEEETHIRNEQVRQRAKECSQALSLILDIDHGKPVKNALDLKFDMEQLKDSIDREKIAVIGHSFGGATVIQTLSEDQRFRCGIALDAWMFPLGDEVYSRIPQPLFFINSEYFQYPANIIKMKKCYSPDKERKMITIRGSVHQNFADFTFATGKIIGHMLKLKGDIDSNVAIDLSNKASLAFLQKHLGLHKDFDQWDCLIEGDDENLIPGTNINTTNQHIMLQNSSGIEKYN
Procedure: as §1, with “mmol/l” for “mmol/L”, “human plasma” for “rabbit serum”, “was” for “was vortex”, “with vortex.” for “and the reaction was stopped.”, “added and mixed by vortexing.” for “added.”, “was” for “was mixed by vortexing and then”

[1] = rabbit serum, read-out: inhibition, %
[2] = human serum, read-out: inhibition, %
[3] = read-out: inhibitory rate towards the rabbit serum derived Lp-PLA2 enzyme
[4] = read-out: inhibitory rate towards the human serum derived Lp-PLA2 enzyme

Row | inhibition at 0.1 µM (Lp-PLA2 in rabbit serum; [1]) [%] | inhibition at 1 µM (Lp-PLA2 in rabbit serum; rabbit serum) [%] | inhibition at 0.01 µM (Lp-PLA2 in human serum; [2]) [%] | inhibition at 0.1 µM (Lp-PLA2 in human serum; human serum) [%] | inhibition at 0.1 µM (Lp-PLA2 in rabbit serum; [3]) [%] | inhibition at 0.01 µM (Lp-PLA2 in human serum; [4]) [%] | Structure (SMILES)
1 | 87.1 | 97.2 | 75 | 89 | – | – | CN(C)Cc1cnc(Cn2c(SCc3ccc(F)cc3)nc(=O)c3c2CCC3)n1Cc1ccc(-c2ccc(C(F)(F)F)cc2)cc1 [Example 46, 1-((5-((dimethylamino)methyl)-1-((4′-(trifluoromethyl)biphenyl-4-yl)methyl)-1H-imidazol-2-yl)methyl)-2-(4-fluorobenzylthio)-6,7-dihydro-1H-cyclopenta[d]pyrimidin-4(5H)-one]
2 | 89.1 | – | 69 | 95 | – | – | CN(Cc1ccc(F)cc1)Cc1cnc(Cn2c(SCc3ccc(F)cc3)nc(=O)c3c2CCC3)n1Cc1ccc(-c2ccc(C(F)(F)F)cc2)cc1 [Example 44]
3 | 93 | – | 94 | 98 | > 90 | > 80 | C=C(OC(C)=O)c1nnc(Cn2c(SCc3ccc(F)cc3)nc(=O)c3c2CCC3)n1Cc1ccc(-c2ccc(C(F)(F)F)cc2)cc1 [Example 119, 1-(5-((2-(4-fluorobenzylthio)-4-oxo-4,5,6,7-tetrahydro-1H-cyclopenta[d]pyrimidin-1-yl)methyl)-4-((4′-(trifluoromethyl)biphenyl-4-yl)methyl)-4H-1,2,4-triazol-3-yl)vinyl acetate]
4 | 75 | – | 68 | 92 | – | – | CCS(=O)(=O)NCc1nnc(Cn2c(SCc3ccc(F)cc3)nc(=O)c3c2CCC3)n1Cc1ccc(-c2ccc(C(F)(F)F)cc2)cc1 [Example 111, N-((5-((2-(4-fluorobenzylthio)-4-oxo-4,5,6,7-tetrahydro-1H-cyclopenta[d]pyrimidin-1-yl)methyl)-4-((4′-(trifluoromethyl)biphenyl-4-yl)methyl)-4H-1,2,4-triazol-3-yl)methyl)ethanesulfonamide]
5 | 97 | – | 100 | – | > 90 | > 80 | CCN(CC)CCN(C)Cc1onc(Cn2c(SCc3ccc(F)cc3)nc(=O)c3c2CCC3)c1Cc1ccc(-c2ccc(C(F)(F)F)cc2)cc1 [Example 159, 1-((5-(((2-(diethylamino)ethyl)(methyl)amino)methyl)-4-((4′-(trifluoromethyl)biphenyl-4-yl)methyl)isoxazol-3-yl)methyl)-2-(4-fluorobenzylthio)-6,7-dihydro-1H-cyclopenta[d]pyrimidin-4(5H)-one]
6 | 68 | – | 70 | 91 | – | – | CN1CCN(Cc2nnc(Cn3c(SCc4ccc(F)cc4)nc(=O)c4c3CCC4)n2Cc2ccc(-c3ccc(C(F)(F)F)cc3)cc2)CC1 [Example 107, 2-(4-fluorobenzylthio)-1-((5-((4-methylpiperazin-1-yl)methyl)-4-((4′-(trifluoromethyl)biphenyl-4-yl)methyl)-4H-1,2,4-triazol-3-yl)methyl)-6,7-dihydro-1H-cyclopenta[d]pyrimidin-4(5H)-one]
7 | 91 | – | 92 | 98 | > 90 | > 80 | CC(C)c1nnc(Cn2c(SCc3ccc(F)cc3)nc(=O)c3c2CCC3)n1Cc1ccc(-c2ccc(C(F)(F)F)cc2)cc1 [Example 67, 2-(4-fluorobenzylthio)-1-((5-isopropyl-4-((4′-(trifluoromethyl)biphenyl-4-yl)methyl)-4H-1,2,4-triazol-3-yl)methyl)-6,7-dihydro-1H-cyclopenta[d]pyrimidin-4(5H)-one]
8 | 68 | – | 58 | 88 | – | – | CC(C)(C)N/N=C/c1nnc(Cn2c(SCc3ccc(F)cc3)nc(=O)c3c2CCC3)n1Cc1ccc(-c2ccc(C(F)(F)F)cc2)cc1 [Example 118]
9 | 93 | – | 81 | 95 | > 90 | > 80 | CCN1CCCC1CNCc1nnc(Cn2c(SCc3ccc(F)cc3)nc(=O)c3c2CCC3)n1Cc1ccc(-c2ccc(C(F)(F)F)cc2)cc1 (racemic) [Example 83, (±)-1-((5-(((1-ethylpyrrolidin-2-yl)methylamino)methyl)-4-((4′-(trifluoromethyl)biphenyl-4-yl)methyl)-4H-1,2,4-triazol-3-yl)methyl)-2-(4-fluorobenzylthio)-6,7-dihydro-1H-cyclopenta[d]pyrimidin-4(5H)-one]
10 | 34 | 87 | 93 | 97 | – | – | O=c1nc(SCc2ccc(F)cc2)n(Cc2nnc(C3CC3)n2Cc2ccc(-c3ccc(C(F)(F)F)cc3)cc2)c2c1CCC2 [Example 68, 1-((5-cyclopropyl-4-((4′-(trifluoromethyl)biphenyl-4-yl)methyl)-4H-1,2,4-triazol-3-yl)methyl)-2-(4-fluorobenzylthio)-6,7-dihydro-1H-cyclopenta[d]pyrimidin-4(5 H)-one]
11 | 95 | – | 92 | – | > 90 | > 80 | C[N+](C)(CCO)Cc1nnc(Cn2c(SCc3ccc(F)cc3)nc(=O)c3c2CCC3)n1Cc1ccc(-c2ccc(C(F)(F)F)cc2)cc1 [Example 122, N-((5-((2-(4-fluorobenzylthio)-4-oxo-4,5,6,7-tetrahydro-1H-cyclopenta[d]pyrimidin-1-yl)methyl)-4-((4′-(trifluoromethyl)biphenyl-4-yl)methyl)-4H-1,2,4-triazol-3-yl)methyl)-2-hydroxy-N,N-dimethylethanaminium chloride]
12 | 98 | – | 72 | – | – | – | CN(C)CCNCc1nnc(Cn2c(SCc3ccc(F)cc3)nc(=O)c3c2CCC3)n1Cc1ccc(-c2ccc(C(F)(F)F)cc2)cc1 [Example 105, 1-((5-((2-(dimethylamino)ethylamino)methyl)-4-((4′-(trifluoromethyl)biphenyl-4-yl)methyl)-4H-1,2,4-triazol-3-yl)methyl)-2-(4-fluorobenzylthio)-6,7-dihydro-1H-cyclopenta[d]pyrimidin-4(5H)-one]
13 | 78.9 | – | 73 | 93 | – | – | Cc1nnc(Cn2c(SCc3ccc(F)cc3)nc(=O)c3c2CCC3)n1Cc1ccc(-c2ccc(C(F)(F)F)cc2)cc1 [Example 64, 2-(4-fluorobenzylthio)-1-((5-methyl-4-((4′-(trifluoromethyl)biphenyl-4-yl)methyl)-4H-1,2,4-triazol-3-yl)methyl)-6,7-dihydro-1H-cyclopenta[d]pyrimidin-4(5H)-one]
14 | 78 | – | 77 | – | – | – | O=c1nc(SCc2ccc(F)cc2)n(Cc2nnc(CSCc3ccc(F)cc3)n2Cc2ccc(-c3ccc(C(F)(F)F)cc3)cc2)c2c1CCC2 [Example 115, 2-(4-fluorobenzylthio)-1-((5-((4-fluorobenzylthio)methyl)-4-((4′-(trifluoromethyl)biphenyl-4-yl)methyl)-4H-1,2,4-triazol-3-yl)methyl)-6,7-dihydro-1H-cyclopenta[d]pyrimidin-4(5H)-one]
